{"source": "patent US5308608A", "about": "“Photosensitizing Diels-Alder porphyrin derivatives” (University of British Columbia, priority 1992, dated 1994)", "tested_on": "MI-S", "experiment": "In vitro photosensitizing cytotoxicity (LD50) on cell line MI-S, 700-820 nm light for 30 minutes", "format": "cell-based", "conditions": "eosin-Y exclusion or tritium-labeled thymidine uptake", "protocol": "Various invention compounds were assayed in vitro using either cell line P815 or MI-S as model systems to test their photosensitizing activity. In the standard protocol, various concentrations of test compounds were added to washed suspensions of cells from cultures of the target cells and the mixtures were then irradiated using 700-820 nm light for 30 minutes. The results were assayed by determining cytotoxicity using direct counting using eosin-Y exclusion, a standard procedure for differentiating living from dead cells.\nIn other determinations conducted as above, the cells recovered from light exposure were assayed for viability by incubating them for 18 hours in 10 mCi/ml tritium-labeled thymidine according to the standard procedure whereby thymidine incorporation is equated with viability. The cells were harvested and radioactivity uptake was measured by a scintillation counter."}
{"smiles": "CCc1c(C)c2cc3nc(cc4[nH]c(cc5nc(cc1[nH]2)C1(C)C5=CCC2C(=O)N(c5ccccc5)C(=O)C21)c(C)c4CC)C1(C)C3=CCC2C(=O)N(c3ccccc3)C(=O)C21", "note": "(stereo not shown) [Compound 12]", "values": [{"measurement": "LD50", "result": 100, "unit": "ng"}]}
